Assay results as given in ChEMBL document CHEMBL3885881, “DrugMatrix”.

Species on record: Rattus norvegicus
Experiment: DrugMatrix - Regimen: Daily Repeat
Format: toxicity, organism-based, Sprague-Dawley
Set-up: regimen Daily Repeat, gender Male, age 6-8 weeks
Conditions: in vivo, sc, 0 mg/kg, route subcutaneous, dose level Control, […]; for ABSOLUTE BASOPHIL / ABSOLUTE EOSINOPHIL / ABSOLUTE LYMPHOCYTE / ABSOLUTE MONOCYTE / ABSOLUTE SEGMENTED NEUTROPHIL / BASOPHIL / EOSINOPHIL / ERYTHROCYTE COUNT / HEMATOCRIT / HEMOGLOBIN / LEUKOCYTE COUNT / LYMPHOCYTE / MEAN CORPUSCULAR HEMOGLOBIN / MEAN CORPUSCULAR HEMOGLOBIN CONCENTRATION / MEAN CORPUSCULAR VOLUME / MONOCYTE / NEUTROPHIL / NUCLEATED RED BLOOD CELLS / PLATELET COUNT: tissue Blood; for ALANINE AMINOTRANSFERASE / ALBUMIN / ALKALINE PHOSPHATASE / ASPARTATE AMINOTRANSFERASE / BLOOD UREA NITROGEN / CARBON DIOXIDE / CHLORIDE / CHOLESTEROL / CREATINE PHOSPHOKINASE / CREATININE / GLUCOSE / LACTATE DEHYDROGENASE / LIPASE / PHOSPHORUS / POTASSIUM / SODIUM / TOTAL BILIRUBIN / TOTAL PROTEIN / URIC ACID: tissue Plasma

For O=C(O)c1ccccc1O [SALICYLIC ACID], the “ABSOLUTE BASOPHIL” value (72 h, time 3 day) was 0 CELLS/uL, the “ABSOLUTE EOSINOPHIL” value (72 h, time 3 day) was 0 CELLS/uL and the “ABSOLUTE LYMPHOCYTE” value (72 h, time 3 day) was 10887 CELLS/uL. The “ABSOLUTE MONOCYTE” value (72 h, time 3 day) was 56 CELLS/uL, the “ABSOLUTE SEGMENTED NEUTROPHIL” value (72 h, time 3 day) was 1057 CELLS/uL and the BASOPHIL (72 h, time 3 day) was 0%. For the same molecule, the EOSINOPHIL (72 h, time 3 day) was 0%, the “ERYTHROCYTE COUNT” value (72 h, time 3 day) was 5.31 x10E6/uL and the HEMATOCRIT (72 h, time 3 day) was 33.78%. The HEMOGLOBIN (72 h, time 3 day) was 13.4 G/DL, the “LEUKOCYTE COUNT” value (72 h, time 3 day) was 12 x10E3/uL and the LYMPHOCYTE (72 h, time 3 day) was 91.17%. The “MEAN CORPUSCULAR HEMOGLOBIN” value (72 h, time 3 day) was 25.25 pg, the “MEAN CORPUSCULAR HEMOGLOBIN CONCENTRATION” value (72 h, time 3 day) was 39.65 G/DL and the “MEAN CORPUSCULAR VOLUME” value (72 h, time 3 day) was 63.65 fL. For the same molecule, the MONOCYTE (72 h, time 3 day) was 0.5%, the NEUTROPHIL (72 h, time 3 day) was 8.33% and the “NUCLEATED RED BLOOD CELLS” value (72 h, time 3 day) was 0 /100WBC. The “PLATELET COUNT” value (72 h, time 3 day) was 1142 x10E3/uL, the “ALANINE AMINOTRANSFERASE” value (72 h, time 3 day) was 57.17 u/L and the ALBUMIN (72 h, time 3 day) was 4.28 G/DL. For the same molecule, the “ALKALINE PHOSPHATASE” value (72 h, time 3 day) was 425.83 u/L, the “ASPARTATE AMINOTRANSFERASE” value (72 h, time 3 day) was 93.83 u/L and the “BLOOD UREA NITROGEN” value (72 h, time 3 day) was 14.17 mg/dL. For the same molecule, the “CARBON DIOXIDE” value (72 h, time 3 day) was 33.5 mmol/L, the CHLORIDE (72 h, time 3 day) was 100 MEQ/L and the CHOLESTEROL (72 h, time 3 day) was 70.33 mg/dL. The “CREATINE PHOSPHOKINASE” value (72 h, time 3 day) was 438.67 u/L, the CREATININE (72 h, time 3 day) was 0.19 mg/dL and the GLUCOSE (72 h, time 3 day) was 138.5 mg/dL. For the same molecule, the “LACTATE DEHYDROGENASE” value (72 h, time 3 day) was 190.17 u/L, the LIPASE (72 h, time 3 day) was 9.83 u/L and the PHOSPHORUS (72 h, time 3 day) was 11.05 mg/dL. For the same molecule, the POTASSIUM (72 h, time 3 day) was 6.59 MEQ/L, the SODIUM (72 h, time 3 day) was 143.58 MEQ/L and the “TOTAL BILIRUBIN” value (72 h, time 3 day) was 0.22 mg/dL. For the same molecule, the “TOTAL PROTEIN” value (72 h, time 3 day) was 6.15 G/DL, the “URIC ACID” value (72 h, time 3 day) was 1.3 mg/dL and the “ABSOLUTE BASOPHIL” value (120 h, time 5 day) was 0 CELLS/uL. For the same molecule, the “ABSOLUTE EOSINOPHIL” value (120 h, time 5 day) was 91.17 CELLS/uL, the “ABSOLUTE LYMPHOCYTE” value (120 h, time 5 day) was 11847.67 CELLS/uL and the “ABSOLUTE MONOCYTE” value (120 h, time 5 day) was 172.83 CELLS/uL. For the same molecule, the “ABSOLUTE SEGMENTED NEUTROPHIL” value (120 h, time 5 day) was 1105 CELLS/uL, the BASOPHIL (120 h, time 5 day) was 0% and the EOSINOPHIL (120 h, time 5 day) was 0.67%. The “ERYTHROCYTE COUNT” value (120 h, time 5 day) was 5.35 x10E6/uL, the HEMATOCRIT (120 h, time 5 day) was 33.65% and the HEMOGLOBIN (120 h, time 5 day) was 13.42 G/DL. For the same molecule, the “LEUKOCYTE COUNT” value (120 h, time 5 day) was 13.22 x10E3/uL, the LYMPHOCYTE (120 h, time 5 day) was 89.83% and the “MEAN CORPUSCULAR HEMOGLOBIN” value (120 h, time 5 day) was 25.12 pg. For the same molecule, the “MEAN CORPUSCULAR HEMOGLOBIN CONCENTRATION” value (120 h, time 5 day) was 39.9 G/DL, the “MEAN CORPUSCULAR VOLUME” value (120 h, time 5 day) was 63 fL and the MONOCYTE (120 h, time 5 day) was 1.33%. For the same molecule, the NEUTROPHIL (120 h, time 5 day) was 8.17%, the “NUCLEATED RED BLOOD CELLS” value (120 h, time 5 day) was 0 /100WBC and the “PLATELET COUNT” value (120 h, time 5 day) was 1347.83 x10E3/uL. The “ALANINE AMINOTRANSFERASE” value (120 h, time 5 day) was 50 u/L, the ALBUMIN (120 h, time 5 day) was 4.1 G/DL and the “ALKALINE PHOSPHATASE” value (120 h, time 5 day) was 329.17 u/L. The “ASPARTATE AMINOTRANSFERASE” value (120 h, time 5 day) was 77.17 u/L, the “BLOOD UREA NITROGEN” value (120 h, time 5 day) was 16.83 mg/dL and the “CARBON DIOXIDE” value (120 h, time 5 day) was 34.83 mmol/L. For the same molecule, the CHLORIDE (120 h, time 5 day) was 99.83 MEQ/L, the CHOLESTEROL (120 h, time 5 day) was 75.67 mg/dL and the “CREATINE PHOSPHOKINASE” value (120 h, time 5 day) was 295.83 u/L. The CREATININE (120 h, time 5 day) was 0.18 mg/dL, the GLUCOSE (120 h, time 5 day) was 156.33 mg/dL and the “LACTATE DEHYDROGENASE” value (120 h, time 5 day) was 166.83 u/L. For the same molecule, the LIPASE (120 h, time 5 day) was 9.83 u/L, the PHOSPHORUS (120 h, time 5 day) was 12.18 mg/dL and the POTASSIUM (120 h, time 5 day) was 6.69 MEQ/L. For the same molecule, the SODIUM (120 h, time 5 day) was 143.97 MEQ/L, the “TOTAL BILIRUBIN” value (120 h, time 5 day) was 0.22 mg/dL and the “TOTAL PROTEIN” value (120 h, time 5 day) was 6.05 G/DL. The “URIC ACID” value (120 h, time 5 day) was 1.6 mg/dL.
